The subject of one assay is A549. As to the kind of experiment: Cytotoxicity against human A549 cells after 48 hrs by MTT assay. The class given is functional, cell-based. The note with it: A549, 48 h. On the technique in general: Formazan colour is commonly taken as a measure of viable cells.
A further assay has as its system HeLa. As to the kind of experiment: Cytotoxicity against human HeLa cells after 48 hrs by MTT assay. It counts as functional, cell-based.
The next assay deals with HepG2. As to the kind of experiment: Cytotoxicity against human HepG2 cells after 48 hrs by MTT assay. The settings on record: HepG2, 48 h. The class given is functional, cell-based.
In a further assay the test system is MCF7. As to the kind of experiment: Cytotoxicity against human MCF7 cells after 48 hrs by MTT assay. It counts as functional, cell-based. The settings on record: MCF7, 48 h.
The subject of assay [1] is DU-145. As to the kind of experiment: Cytotoxicity against human DU145 cells after 48 hrs by MTT assay. It counts as functional, cell-based. The note with it: DU-145, 48 h.
The target of assay [2] is T1, Tubulin (Homo sapiens) (UniProt P68371+Q9H4B7+P0DPH7+P68366+Q13509+Q71U36+P04350+Q3ZCM7+P07437+P68363+Q9BQE3+Q6PEY2+Q13885+Q9BVA1+Q9BUF5). As to the kind of experiment: Inhibition of tubulin polymerization (unknown origin) at 5 uM measured every min for 1 hr by fluorescence-based assay. It counts as protein-complex assay. Further details: scale not given: the % may be the effect or the level left.

Assay [3] relates to DU-145. As to the kind of experiment: Cytotoxicity against human DU145 cells assessed as inhibition of colony formation at 5 uM after 3 days by microscopy. It counts as functional, cell-based.
For assay [4], the system named is DU-145. As to the kind of experiment: Cytotoxicity against human DU145 cells assessed as inhibition of colony formation at 2.5 uM after 3 days by microscopy. The class given is functional, cell-based.
Assay [5] concerns DU-145. As to the kind of experiment: Induction of apoptosis in human DU145 cells assessed as nuclear fragmentation at 2 uM after 24 hrs by Hoechst 33342 staining based confocal microscopy. It counts as functional, cell-based.
In assay [6] the test system is DU-145. As to the kind of experiment: Cell cycle arrest in human DU145 cells assessed as accumulation at S phase at 2 uM after 48 hrs by propidium iodide staining-based flow cytometric analysis (reference value: 5.88%). The class given is functional. A general note: In flow cytometry, cells or beads pass a laser one at a time.
For assay [7], the system named is DU-145. As to the kind of experiment: Cell cycle arrest in human DU145 cells assessed as accumulation at sub-G1 phase at 2 uM after 48 hrs by propidium iodide staining-based flow cytometric analysis (reference value: 0.17%). It counts as functional.
Assay [8] addresses T1, Tubulin (Homo sapiens). As to the kind of experiment: Inhibition of tubulin polymerization in human DU145 cells assessed as reduction of Akt phosphorylation at Ser473 at 2 to 5 uM after 48 hrs by Western blotting analysis. The settings on record: DU-145. It counts as cell-based.
Assay [9] relates to DU-145. As to the kind of experiment: Cell cycle arrest in human DU145 cells assessed as accumulation at G2/M phase at 2 uM after 48 hrs by propidium iodide staining-based flow cytometric analysis (reference value: 15%). It counts as functional.
Assay [10] relates to DU-145. As to the kind of experiment: Cell cycle arrest in human DU145 cells assessed as accumulation at G0/G1 phase at 2 uM after 48 hrs by propidium iodide staining-based flow cytometric analysis (reference value: 78.96%). It counts as functional.

Activity calls are given as the source filed them. The calls are words filed in the database; no cut-off is given here. A value given as a limit tells only on which side of the number the result lay.

A word on the IC50: it is the midpoint of a concentration-inhibition curve. As to `COc1cccc(/C(=C\c2cc(OC)c(OC)c(OC)c2)C(=O)O[C@H]2c3cc4c(cc3[C@@H](c3cc(OC)c(OC)c(OC)c3)[C@H]3C(=O)OC[C@@H]32)OCO4)c1`, the IC50 in the assay on A549 was 24.9 µM; in the assay with HeLa, 14.1 µM; in the assay with HepG2, 27.3 µM; in the assay on MCF7 it was 20.1 µM; in the assay on DU-145 [1], 18.4 µM.

As for `COc1cc([C@@H]2c3cc4c(cc3[C@H](O)[C@H]3COC(=O)[C@H]23)OCO4)cc(OC)c1OC` [PODOFILOX], at Tubulin (Homo sapiens) [2], the Activity came out at 66.6%. In addition, in the assay on DU-145 [1], the IC50 is above 100 µM.

On to `COc1cc([C@@H]2c3cc4c(cc3[C@H](OC(=O)c3cc([N+](=O)[O-])ccc3N)[C@H]3COC(=O)[C@H]23)OCO4)cc(OC)c1OC`, for which the IC50 in the assay on A549 stood at 22.2 µM; in the assay on HeLa, 13.7 µM; with HepG2 it was 27.3 µM; in the assay with MCF7, 19.7 µM; in the assay on DU-145 [1], 11.2 µM.

Consider `COc1cc([C@@H]2c3cc4c(cc3[C@H](OC(=O)C#Cc3ccccc3)[C@H]3COC(=O)[C@H]23)OCO4)cc(OC)c1OC`, for which the inhibition entry with DU-145 [3] and with DU-145 [4] was “Active” in each case. For the same compound, the IC50 was 1.81 µM in the assay with A549; 1.12 µM in the assay with HeLa; 1.08 µM in the assay with HepG2; 1.23 µM in the assay with MCF7; 0.79 µM with DU-145 [1]. This compound also returned an Activity at Tubulin (Homo sapiens) [2] of 53.8%. In the assay on DU-145 [5], the result was Active.

Consider `COc1ccc(/C(=C\c2cc(OC)c(OC)c(OC)c2)C(=O)O[C@H]2c3cc4c(cc3[C@@H](c3cc(OC)c(OC)c(OC)c3)[C@H]3C(=O)OC[C@@H]32)OCO4)cc1OC`, for which the IC50 was determined as 10.4 µM in the assay on A549; 11.8 µM in the assay on HeLa; 23.7 µM with HepG2; 22.9 µM in the assay on MCF7; 37.8 µM in the assay on DU-145 [1].

Regarding `COc1ccc(/C(=C\c2cc(OC)c(OC)c(OC)c2)C(=O)O[C@H]2c3cc4c(cc3[C@@H](c3cc(OC)c(OC)c(OC)c3)[C@H]3C(=O)OC[C@@H]32)OCO4)cc1`, the IC50 with A549 is 13 µM; with HeLa, 15.9 µM; in the assay on HepG2, 23.7 µM; in the assay with MCF7, 23.3 µM; in the assay on DU-145 [1], 38.1 µM.

With `COc1cc([C@@H]2c3cc4c(cc3[C@H](OC(=O)c3cccc(OC)c3OC)[C@H]3COC(=O)[C@H]23)OCO4)cc(OC)c1OC`, the IC50 was 24.3 µM with A549; 13.2 µM in the assay on HeLa; 48.6 µM in the assay on HepG2; 21 µM in the assay on MCF7; 50.4 µM in the assay with DU-145 [1].

With `COc1cc([C@@H]2c3cc4c(cc3[C@H](OC(=O)c3ccc([N+](=O)[O-])cc3)[C@H]3COC(=O)[C@H]23)OCO4)cc(OC)c1OC`, the inhibition result in the assay on DU-145 [3] is “Active”. Further, the Activity in the assay with DU-145 [6] is 4.24%; in the assay with DU-145 [7], 40.72%; at Tubulin (Homo sapiens) [8], “Dose-dependent effect”; in the assay on DU-145 [9], 13.23%; on Tubulin (Homo sapiens) [2], 64%; in the assay with DU-145 [10], 41.81%. For the same compound, the IC50 was determined as 0.74 µM in the assay with A549; 2.06 µM with HeLa; 8.83 µM with HepG2; 1.56 µM with MCF7; 1.1 µM in the assay with DU-145 [1].

Take `COc1cccc2c1C(=O)c1c(O)c3c(c(O)c1C2=O)C[C@@](O)(C(=O)CO)C[C@@H]3O[C@H]1C[C@H](N)[C@H](O)[C@H](C)O1` [DOXORUBICIN]: the IC50 is 0.9 µM in the assay on HeLa, 3.82 µM with HepG2 and 4.06 µM in the assay on DU-145 [1].

In the case of `COc1ccc(/C=C\c2cc(OC)c(OC)c(OC)c2)cc1O`, the Activity on Tubulin (Homo sapiens) [2] amounted to 69.4%.

Regarding `COc1ccc(/C(=C\c2ccc(OCc3ccccc3)c(OC)c2)C(=O)O[C@H]2c3cc4c(cc3[C@@H](c3cc(OC)c(OC)c(OC)c3)[C@H]3C(=O)OC[C@@H]32)OCO4)cc1OC`, the IC50 came out at 24.9 µM in the assay on A549; 15.9 µM in the assay with HeLa; 28 µM in the assay with HepG2; 20.3 µM in the assay on MCF7; 13.4 µM with DU-145 [1].

`COc1ccc(/C(=C\c2ccc(OC)c(OC)c2)C(=O)O[C@H]2c3cc4c(cc3[C@@H](c3cc(OC)c(OC)c(OC)c3)[C@H]3C(=O)OC[C@@H]32)OCO4)cc1`: the IC50 with A549 is 18.2 µM; with HeLa, 15.5 µM; in the assay with HepG2, 51.2 µM; in the assay with MCF7, 17.4 µM; in the assay with DU-145 [1], 8.32 µM.

As for `COc1ccc(/C(=C\c2ccc(OC(C)=O)c(OC)c2)C(=O)O[C@H]2c3cc4c(cc3[C@@H](c3cc(OC)c(OC)c(OC)c3)[C@H]3C(=O)OC[C@@H]32)OCO4)cc1OC`, the inhibition result in the assay on DU-145 [3] was “Active”. For the same compound, the Activity in the assay with DU-145 [6] is 5.69%; in the assay on DU-145 [7], 38.88%; on Tubulin (Homo sapiens) [8], “Dose-dependent effect”; in the assay on DU-145 [9], 12.63%; at Tubulin (Homo sapiens) [2], 51.2%; with DU-145 [10], 42.8%. Also, the 50% inhibitory concentration (IC50) in the assay on A549 was found to be 0.91 µM; in the assay with HeLa, 2.3 µM; in the assay with HepG2, 10.9 µM; in the assay on MCF7, 1.83 µM; in the assay on DU-145 [1] it was 1.06 µM.

As for `COc1cc([C@@H]2c3cc4c(cc3[C@H](OC(=O)c3ccccc3Cl)[C@H]3COC(=O)[C@H]23)OCO4)cc(OC)c1OC`, the IC50 in the assay on A549 amounted to 34.5 µM; in the assay on HeLa it was 17.1 µM; in the assay with HepG2 it was 24.4 µM; in the assay with MCF7 it was 19.5 µM; in the assay on DU-145 [1], 11.2 µM.

Regarding `CC#CC(=O)O[C@H]1c2cc3c(cc2[C@@H](c2cc(OC)c(OC)c(OC)c2)[C@H]2C(=O)OC[C@@H]21)OCO3`, the inhibition entry with DU-145 [3] and in the assay with DU-145 [4] was “Active” in each case. Besides, the IC50 in the assay with A549 came to 1.03 µM; with HeLa, 1 µM; in the assay on HepG2, 1.47 µM; in the assay with MCF7, 1.35 µM; in the assay on DU-145 [1], 1.71 µM. In addition, the Activity on Tubulin (Homo sapiens) [2] was 62.1%. Moreover, the outcome with DU-145 [5] was Active.

As for `COc1ccc(C(=O)O[C@H]2c3cc4c(cc3[C@@H](c3cc(OC)c(OC)c(OC)c3)[C@H]3C(=O)OC[C@@H]32)OCO4)c([N+](=O)[O-])c1`, the IC50 worked out at 25.8 µM with A549; 17.6 µM in the assay on HeLa; 26.5 µM in the assay on HepG2; 15.3 µM in the assay on MCF7; 14.4 µM in the assay on DU-145 [1].

On to `COc1ccc(/C(=C\c2ccc(OC)c(OCc3ccccc3)c2)C(=O)O[C@H]2c3cc4c(cc3[C@@H](c3cc(OC)c(OC)c(OC)c3)[C@H]3C(=O)OC[C@@H]32)OCO4)cc1OC`, for which the IC50 worked out at 17.5 µM in the assay with A549; 14.3 µM in the assay on HeLa; 22.9 µM with HepG2; 17.6 µM in the assay with MCF7; 33 µM in the assay on DU-145 [1].

As for `COc1ccc(/C=C(/C(=O)O[C@H]2c3cc4c(cc3[C@@H](c3cc(OC)c(OC)c(OC)c3)[C@H]3C(=O)OC[C@@H]32)OCO4)c2ccc(OC)c(OC)c2)cc1OC`, the inhibition entry in the assay with DU-145 [3] is “Active”. The Activity in the assay with DU-145 [6] is 1.68%; with DU-145 [7], 73%; on Tubulin (Homo sapiens) [8], “Dose-dependent effect”; in the assay on DU-145 [9], 2.94%; at Tubulin (Homo sapiens) [2], 46.8%; with DU-145 [10], 22.39%. Moreover, the half-inhibitory concentration (IC50) in the assay on A549 was 0.71 µM; in the assay on HeLa, 2.02 µM; in the assay with HepG2, 5.13 µM; with MCF7 it was 1.74 µM; with DU-145 [1], 1.4 µM.

For the origin of these results see ChEMBL document CHEMBL3352650, “Investigation of podophyllotoxin esters as potential anticancer agents: synthesis, biological studies and tubulin inhibition properties” (Eur J Med Chem, 2015).
